From PubChem BioAssay AID1259407 (Chemical Carcinogenesis Research Information System (CCRIS), 2018)
Activity calls are given as the source filed them. No rule for the calls is given here.

Test system: CCRIS mutagenicity, Ames/micronucleus/aberration tests
Assay: CCRIS mutagenicity studies
[1] = Test System: AMES SALMONELLA TYPHIMURIUM, Strain/Indicator: TA98, Metabolic Activation: NONE, Method: STANDARD PLATE
[2] = Test System: AMES SALMONELLA TYPHIMURIUM, Strain/Indicator: TA98, Metabolic Activation: RAT, LIVER, S-9, AROCLOR 1254, Method: STANDARD PLATE
[3] = Test System: AMES SALMONELLA TYPHIMURIUM, Strain/Indicator: TA100, Metabolic Activation: NONE, Method: STANDARD PLATE
[4] = Test System: AMES SALMONELLA TYPHIMURIUM, Strain/Indicator: TA100, Metabolic Activation: RAT, LIVER, S-9, AROCLOR 1254, Method: STANDARD PLATE
[5] = Test System: AMES SALMONELLA TYPHIMURIUM, Strain/Indicator: TA1537, Metabolic Activation: NONE, Method: STANDARD PLATE
[6] = Test System: AMES SALMONELLA TYPHIMURIUM, Strain/Indicator: TA1537, Metabolic Activation: RAT, LIVER, S-9, AROCLOR 1254, Method: STANDARD PLATE
[7] = Test System: AMES SALMONELLA TYPHIMURIUM, Strain/Indicator: TA100, Metabolic Activation: NONE, Method: PREINCUBATION

Measured: mutagenic call

O=[N+]([O-])c1cc(C(F)(F)F)cc([N+](=O)[O-])c1O
inactive: [1] inactive; negative | [2] inactive; negative | [3] inactive; negative | [4] inactive; negative | Test System: AMES SALMONELLA TYPHIMURIUM, Strain/Indicator: TA1535, Metabolic Activation: NONE, Method: STANDARD PLATE inactive; negative | Test System: AMES SALMONELLA TYPHIMURIUM, Strain/Indicator: TA1535, Metabolic Activation: RAT, LIVER, S-9, AROCLOR 1254, Method: STANDARD PLATE inactive; negative | [5] inactive; negative | [6] inactive; negative | Test System: AMES SALMONELLA TYPHIMURIUM, Strain/Indicator: TA1538, Metabolic Activation: NONE, Method: STANDARD PLATE inactive; negative | Test System: AMES SALMONELLA TYPHIMURIUM, Strain/Indicator: TA1538, Metabolic Activation: RAT, LIVER, S-9, AROCLOR 1254, Method: STANDARD PLATE inactive; negative

Cc1cnc2ccc3c(nc(N)n3C)c2n1
inactive: End Point: IN VIVO MICRONUCLEUS, Test System: BONE MARROW POLYCHROMATIC ERYTHROCYTES, Species: MOUSE, Strain/Sex: BALB/C/MALE, Route: IP INJECTION inactive; negative | Test System: AMES SALMONELLA TYPHIMURIUM, Strain/Indicator: TA98, Metabolic Activation: CYNOMOLGUS MONKEY, LIVER, MICROSOMES, Method: PREINCUBATION inactive; negative | Test System: AMES SALMONELLA TYPHIMURIUM, Strain/Indicator: TA98, Metabolic Activation: CYNOMOLOGUS MONKEY, LIVER, MICROSOMES, RIFAMPICIN, Method: PREINCUBATION inactive; negative | Test System: AMES SALMONELLA TYPHIMURIUM, Strain/Indicator: TA98, Metabolic Activation: NONE, Method: PREINCUBATION inactive; negative | Test System: AMES SALMONELLA TYPHIMURIUM, Strain/Indicator: TA98, Metabolic Activation: RABBIT (6 TO 9 D OF AGE), LIVER, MICROSOMES, 3-METHYLCHOLANTHRENE, Method: PREINCUBATION inactive; negative | Test System: AMES SALMONELLA TYPHIMURIUM, Strain/Indicator: TA98, Metabolic Activation: RABBIT (6 TO 17 D OF AGE), LIVER, MICROSOMES, Method: PREINCUBATION inactive; negative | [7] inactive; negative | Test System: CHINESE HAMSTER V-79, Strain/Indicator: V-79/6-THIOGUANINE, Metabolic Activation: RAT, LIVER, S-9, AROCLOR 1254 inactive; negative | Test System: UDS MOUSE HEPATOCYTES, Strain/Indicator: THY INCORP, Metabolic Activation: NONE, Method: AUTORADIOGRAPHY inactive; negative | Test System: UDS RAT HEPATOCYTES, Strain/Indicator: THY INCORP, Metabolic Activation: NONE, Method: AUTORADIOGRAPHY inactive; negative | Test System: UDS RAT HEPATOCYTES, Strain/Indicator: THY INCORP, Metabolic Activation: NONE, Method: LIQUID SCINTILLATION COUNTING inactive; negative
active: Test System: AMES SALMONELLA TYPHIMURIUM, Strain/Indicator: TA98, Metabolic Activation: CYNOMOLOGUS MONKEY, LIVER, MICROSOMES, 2,3,7,8-TETRACHLORODIBENZO-P-DIOXIN, Method: PREINCUBATION active; positive | Test System: AMES SALMONELLA TYPHIMURIUM, Strain/Indicator: TA98, Metabolic Activation: CYNOMOLOGUS MONKEY, LIVER, MICROSOMES, 2-AMINO-3-METHYLIMIDAZO[4,5-F]QUINOLINE, Method: PREINCUBATION active; positive | Test System: AMES SALMONELLA TYPHIMURIUM, Strain/Indicator: TA98, Metabolic Activation: HUMAN, LIVER, MICROSOMES, Method: PREINCUBATION active; positive | Test System: AMES SALMONELLA TYPHIMURIUM, Strain/Indicator: TA98, Metabolic Activation: MONKEY, LIVER, MICROSOMES, Method: PREINCUBATION active; positive | Test System: AMES SALMONELLA TYPHIMURIUM, Strain/Indicator: TA98, Metabolic Activation: PATAS MONKEY, LIVER, MICROSOMES, Method: PREINCUBATION active; positive | Test System: AMES SALMONELLA TYPHIMURIUM, Strain/Indicator: TA98, Metabolic Activation: RABBIT (9 D OF AGE TO ADULT), LIVER, MICROSOMES, 3-METHYLCHOLANTHRENE, Method: PREINCUBATION active; positive | Test System: AMES SALMONELLA TYPHIMURIUM, Strain/Indicator: TA98, Metabolic Activation: RABBIT (17 D OF AGE TO ADULT), LIVER, MICROSOMES, Method: PREINCUBATION active; positive | Test System: AMES SALMONELLA TYPHIMURIUM, Strain/Indicator: TA98, Metabolic Activation: RAT, LIVER, MICROSOMES, Method: PREINCUBATION active; positive | Test System: AMES SALMONELLA TYPHIMURIUM, Strain/Indicator: TA98, Metabolic Activation: RAT, LIVER, S-9, AROCLOR 1254, Method: PREINCUBATION active; positive | [2] active; positive | Test System: AMES SALMONELLA TYPHIMURIUM, Strain/Indicator: TA100, Metabolic Activation: RAT, LIVER, S-9, AROCLOR 1254, Method: PREINCUBATION active; positive | Test System: AMES SALMONELLA TYPHIMURIUM, Strain/Indicator: YG1019, Metabolic Activation: RAT LIVER S-9, AROCLOR, Method: PREINCUBATION active; positive | Test System: UDS HAMSTER HEPATOCYTES, Strain/Indicator: THY INCORP, Metabolic Activation: NONE, Method: LIQUID SCINTILLATION COUNTING active; positive | Test System: UDS HUMAN HEPATOCYTES, Strain/Indicator: THY INCORP, Metabolic Activation: NONE, Method: AUTORADIOGRAPHY active; positive

O=[N+]([O-])[C-]1CCCC1
active: [7] active; positive | Test System: AMES SALMONELLA TYPHIMURIUM, Strain/Indicator: TA100, Metabolic Activation: RAT, LIVER, S-9, AROCLOR, Method: PREINCUBATION active; positive | Test System: AMES SALMONELLA TYPHIMURIUM, Strain/Indicator: TA102, Metabolic Activation: NONE, Method: PREINCUBATION active; positive | Test System: AMES SALMONELLA TYPHIMURIUM, Strain/Indicator: TA102, Metabolic Activation: RAT, LIVER, S-9, AROCLOR, Method: PREINCUBATION active; positive

CC(=O)N(CC(O)CO)c1c(I)c(C(=O)NCCO)c(I)c(C(=O)NCC(O)CO)c1I (stereo not given)
inactive: Test System: AMES SALMONELLA TYPHIMURIUM, Strain/Indicator: TA98, Metabolic Activation: NONE inactive; negative | Test System: AMES SALMONELLA TYPHIMURIUM, Strain/Indicator: TA98, Metabolic Activation: RAT, LIVER, S-9 inactive; negative | Test System: AMES SALMONELLA TYPHIMURIUM, Strain/Indicator: TA100, Metabolic Activation: NONE inactive; negative | Test System: AMES SALMONELLA TYPHIMURIUM, Strain/Indicator: TA100, Metabolic Activation: RAT, LIVER, S-9 inactive; negative | Test System: AMES SALMONELLA TYPHIMURIUM, Strain/Indicator: TA1535, Metabolic Activation: NONE inactive; negative | Test System: AMES SALMONELLA TYPHIMURIUM, Strain/Indicator: TA1535, Metabolic Activation: RAT, LIVER, S-9 inactive; negative | Test System: AMES SALMONELLA TYPHIMURIUM, Strain/Indicator: TA1537, Metabolic Activation: NONE inactive; negative | Test System: AMES SALMONELLA TYPHIMURIUM, Strain/Indicator: TA1537, Metabolic Activation: RAT, LIVER, S-9 inactive; negative | Test System: E.COLI, Strain/Indicator: WP2 UVRA, Metabolic Activation: NONE inactive; negative | Test System: E.COLI, Strain/Indicator: WP2 UVRA, Metabolic Activation: RAT, LIVER, S-9 inactive; negative

O=C1CCC2(O)c3c(ccc(O)c31)-c1ccc(O)c3c1C2C1OC1C3=O (stereo not given)
active: [1] active; positive | [2] active; positive | [3] active; positive | [4] active; positive | [5] active; positive | [6] active; positive
